According to patent US9133183B2, “Imidazolidinones and analogs exhibiting anti-cancer and anti-proliferative activities” (Deciphera Pharmaceuticals, LLC, priority 2013, dated 2015):
Where two headings read alike, the source gives them in different places.

Tests used:
[1] = molecular target: unphosphorylated c-FMS kinase (uFMS, Seq. ID no. 1) (Homo sapiens (Human), UniProt P07333); experiment: uFMS kinase assay (ADP production coupled to pyruvate kinase/lactate dehydrogenase); assay type: biochemical; settings: enzymatic assay, ATP 500 μM
Method in brief: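 Unphosphorylated FMS (10 nM) with polyE4Y 1 mg/mL and 500 μM ATP in 90 mM Tris pH 7.5, 10 mM MgCl2, 0.2% octyl-glucoside, 1% DMSO. ADP formation was coupled via pyruvate kinase/LDH to NADH oxidation, followed at A340 for 4 h at 30° C.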

[2] = molecular target: unphosphorylated PDGFRβ kinase (uPDGFRβ, Seq. ID No. 3) (Homo sapiens (Human), UniProt P09619); experiment: Unphosphorylated PDGFRβ kinase assay (coupled pyruvate kinase/lactate dehydrogenase); assay type: biochemical; settings: enzymatic assay, ATP 500 μM
Method in brief: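 Construct residues 557-1106, unphosphorylated, 15.7 nM, with poly E4Y 2.5 mg/mL and 500 μM ATP, Tris pH 7.5, 1% DMSO, 30 °C. ADP coupled to NADH oxidation via PK/LDH, A340 followed 4 h; rate from 1.5-2.5 h versus no-compound control, IC50 from percent-inhibition series.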

osteoclast precursors = experiment: Osteoclast tartrate-resistant acid phosphatase assay; assay type: cell-based; settings: Osteoclast, 7-14 days, RANKL and M-CSF
[3] = molecular target: c-FMS kinase in THP-1 cells (Homo sapiens (Human), UniProt P07333); experiment: Phospho-FMS ELISA assay in THP-1 cells; assay type: cell-based
[4] = 4 h compound, M-CSF stimulation 5 min, read-out: pFMS inhibition in THP-1 cells

unphosphorylated PDGFRβ kinase (uPDGFRβ, Seq. ID No. 3), sequence (P09619 557-1106): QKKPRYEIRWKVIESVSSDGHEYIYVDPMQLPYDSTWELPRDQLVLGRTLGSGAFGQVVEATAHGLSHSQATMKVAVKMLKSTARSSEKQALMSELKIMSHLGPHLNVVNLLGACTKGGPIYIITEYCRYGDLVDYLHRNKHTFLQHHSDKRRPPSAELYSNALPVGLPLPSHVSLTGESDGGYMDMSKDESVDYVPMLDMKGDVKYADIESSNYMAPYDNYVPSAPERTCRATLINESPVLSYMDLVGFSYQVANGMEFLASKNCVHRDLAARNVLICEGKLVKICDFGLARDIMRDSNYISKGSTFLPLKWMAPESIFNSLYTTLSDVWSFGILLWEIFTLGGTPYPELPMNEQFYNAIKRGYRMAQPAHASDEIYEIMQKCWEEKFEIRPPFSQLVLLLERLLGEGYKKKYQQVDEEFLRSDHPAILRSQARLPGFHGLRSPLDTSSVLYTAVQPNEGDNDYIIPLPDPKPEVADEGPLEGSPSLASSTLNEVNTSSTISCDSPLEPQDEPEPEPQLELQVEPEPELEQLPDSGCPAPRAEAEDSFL
c-FMS kinase in THP-1 cells, sequence (P07333 20-972): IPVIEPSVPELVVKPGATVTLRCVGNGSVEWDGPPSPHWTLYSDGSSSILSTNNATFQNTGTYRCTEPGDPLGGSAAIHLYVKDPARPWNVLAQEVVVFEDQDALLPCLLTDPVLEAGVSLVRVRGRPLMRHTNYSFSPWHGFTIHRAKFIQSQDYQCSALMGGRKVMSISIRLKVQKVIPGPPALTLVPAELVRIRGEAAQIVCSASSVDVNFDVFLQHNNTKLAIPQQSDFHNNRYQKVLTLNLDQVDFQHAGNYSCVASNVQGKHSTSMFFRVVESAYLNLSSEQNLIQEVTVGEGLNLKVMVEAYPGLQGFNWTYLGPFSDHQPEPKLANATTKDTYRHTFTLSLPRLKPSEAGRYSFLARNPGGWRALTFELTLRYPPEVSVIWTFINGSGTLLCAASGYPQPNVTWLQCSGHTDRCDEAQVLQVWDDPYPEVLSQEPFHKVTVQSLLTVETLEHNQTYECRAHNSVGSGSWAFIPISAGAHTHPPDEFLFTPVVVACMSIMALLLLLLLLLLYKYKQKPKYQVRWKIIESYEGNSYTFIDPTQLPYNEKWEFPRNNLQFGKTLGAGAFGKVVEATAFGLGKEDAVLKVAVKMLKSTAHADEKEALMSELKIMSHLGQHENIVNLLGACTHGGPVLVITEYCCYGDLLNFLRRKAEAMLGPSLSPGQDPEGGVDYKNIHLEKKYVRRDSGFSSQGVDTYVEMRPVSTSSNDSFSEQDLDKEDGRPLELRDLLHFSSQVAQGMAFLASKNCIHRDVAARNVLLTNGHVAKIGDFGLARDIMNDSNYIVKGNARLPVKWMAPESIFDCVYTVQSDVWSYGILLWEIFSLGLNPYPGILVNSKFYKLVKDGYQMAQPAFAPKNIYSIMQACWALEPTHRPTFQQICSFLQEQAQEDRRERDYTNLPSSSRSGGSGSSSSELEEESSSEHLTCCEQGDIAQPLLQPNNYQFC
unphosphorylated c-FMS kinase (uFMS, Seq. ID no. 1), sequence (P07333 538-972): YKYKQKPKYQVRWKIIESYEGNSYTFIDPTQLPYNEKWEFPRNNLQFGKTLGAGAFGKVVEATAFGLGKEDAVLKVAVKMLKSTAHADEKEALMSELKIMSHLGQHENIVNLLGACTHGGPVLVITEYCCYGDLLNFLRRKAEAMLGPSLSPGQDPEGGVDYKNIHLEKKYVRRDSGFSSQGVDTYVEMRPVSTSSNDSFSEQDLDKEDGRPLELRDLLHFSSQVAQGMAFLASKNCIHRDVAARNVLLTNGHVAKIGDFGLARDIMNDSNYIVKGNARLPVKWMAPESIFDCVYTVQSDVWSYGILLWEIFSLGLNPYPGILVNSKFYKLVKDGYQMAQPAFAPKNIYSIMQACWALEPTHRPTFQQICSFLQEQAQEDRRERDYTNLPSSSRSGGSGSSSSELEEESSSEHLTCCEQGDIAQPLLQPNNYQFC

SMILES	IC50 ([1]; read-out: uFMS)	IC50 [2]	IC50 (osteoclast precursors)	IC50 [3, 4]	IC50 ([1]; uFMS)	IC50 [3]
CC(=O)Nc1cc(Oc2ccc(NC(=O)N3CCN(C4CCOCC4)C3=O)nc2)ccn1 [Example 119, N-(5-((2-acetamidopyridin-4-yl)oxy)pyridin-2-yl)-2-oxo-3-(tetrahydro-2H-pyran-4-yl)imidazolidine-1-carboxamide]	0.01 to 0.1 µM	0.1 to 1 µM	0.01 to 0.1 µM	0.01 to 0.1 µM		
CCn1cc(-c2cc(Oc3ccc(NC(=O)N4CCN(C5CCOCC5)C4=O)nc3)ccn2)cn1 [Example 4, N-(5-((2-(1-ethyl-1H-pyrazol-4-yl)pyridin-4-yl)oxy)pyridin-2-yl)-2-oxo-3-(tetrahydro-2H-pyran-4-yl)imidazolidine-1-carboxamide]	0.01 to 0.1 µM	0.1 to 1 µM	0.01 to 0.1 µM	< 0.01 µM		
Cn1cc(-c2cc(Oc3ccc(NC(=O)N4CCN(C(C)(C)C)C4=O)nc3)ccn2)cn1 [Example 34, 3-(tert-butyl)-N-(5-((2-(1-methyl-1H-pyrazol-4-yl)pyridin-4-yl)oxy)pyridin-2-yl)-2-oxoimidazolidine-1-carboxamide]	< 0.01 µM	0.01 to 0.1 µM	0.01 to 0.1 µM	< 0.01 µM		
Cc1nc(NC(=O)N2CCN(C)C2=O)ccc1Oc1ccnc(-c2cnn(C)c2)c1 [Example 41, 3-methyl-N-(6-methyl-5-((2-(1-methyl-1H-pyrazol-4-yl)pyridin-4-yl)oxy)pyridin-2-yl)-2-oxoimidazolidine-1-carboxamide]		> 1 µM	0.01 to 0.1 µM		0.01 to 0.1 µM	0.01 to 0.1 µM
Cc1nc(NC(=O)N2CCN(C(C)C)C2=O)ccc1Oc1ccnc(-c2cnn(C)c2)c1 [Example 35, 3-isopropyl-N-(6-methyl-5-((2-(1-methyl-1H-pyrazol-4-yl)pyridin-4-yl)oxy)pyridin-2-yl)-2-oxoimidazolidine-1-carboxamide]	< 0.01 µM	0.1 to 1 µM	< 0.01 µM	< 0.01 µM		

Continued, in another order:

IC50 ([1]; read-out: uFMS)	IC50 [2]	IC50 (osteoclast precursors)	IC50 [3, 4]	SMILES	IC50 ([1]; uFMS)	IC50 [3]
< 0.01 µM	0.1 to 1 µM	< 0.01 µM	< 0.01 µM	CC(C)N1CCN(C(=O)Nc2ccc(Oc3ccnc(-c4cnn(C)c4)c3)cn2)C1=O [Example 36, 3-isopropyl-N-(5-((2-(1-methyl-1H-pyrazol-4-yl)pyridin-4-yl)oxy)pyridin-2-yl)-2-oxoimidazolidine-1-carboxamide]		
< 0.01 µM	> 1 µM	< 0.01 µM	0.01 to 0.1 µM	Cc1cc(NC(=O)N2CCN(C)C2=O)ncc1Oc1ccnc(-c2cnn(C)c2)c1 [Example 85, 3-methyl-N-(4-methyl-5-((2-(1-methyl-1H-pyrazol-4-yl)pyridin-4-yl)oxy)pyridin-2-yl)-2-oxoimidazolidine-1-carboxamide]		
